The source of these data is US20030083202A1, “Roots-inducing agent of plants and its treatment method” (priority 2001, published 2003).

The test system of the test is cut stems of chrysanthemums. The test is described as follows: Roots-inducing and fixation-stimulating actions in cut stems of chrysanthemums (leaf spray). On the set-up: Index for roots-induction, Total indexes: scale not given here. It is filed as in vivo. To be noted: 50th day; for Index for roots-induction, cutting 1 / Index for roots-induction, cutting 2 / Index for roots-induction, cutting 3 / Index for roots-induction, cutting 4 / Index for roots-induction, cutting 5 / Index for roots-induction, cutting 6 / Index for roots-induction, cutting 7 / Index for roots-induction, cutting 8: 5 ppm water solution sprayed once onto leaves, 8 cuttings; for Index for roots-induction, Total indexes: sum of the indexes of 8 cuttings, 5 ppm spray, non-treatment 7. From the text: Stems of chrysanthemums were cut out by 5 cm from the part at 5-10 cm from the top to prepare cuttings with 2 leaves. The water solution of the tested compound (5 ppm) was sprayed once in a misty manner through an mascot spray onto the surface of leaves so that the surface got wet uniformly for each 8 cuttings. The cuttings in the pots were grew in a cabinet where the temperature was controlled in the range of 15 (C at lowest at night to 30 (C at highest in the daytime. Water was supplied appropriately according to the extent of dryness of soil during the cultivation of plants.
On the 50th day after the tested compound was sprayed, roots-induction of each cutting was checked by diggings up, and its extent was shown as an index for each rank.

As for `CCC(C)OC(=O)Cc1c[nH]c2cccc(Cl)c12` (racemic) [4-Cl-IAA 2-Bu], the “Index for roots-induction, cutting 1” value is given as 2 (The cuttings with 10-19 roots per a cutting); the “Index for roots-induction, cutting 2” value is 2 (The cuttings with 10-19 roots per a cutting); the “Index for roots-induction, cutting 3” value was 2 (The cuttings with 10-19 roots per a cutting); the “Index for roots-induction, cutting 4” value was 2 (The cuttings with 10-19 roots per a cutting). In addition, the “Index for roots-induction, cutting 5” value is given as 1 (The cuttings with 5-9 roots per a cutting); the “Index for roots-induction, cutting 6” value is 1 (The cuttings with 5-9 roots per a cutting); the “Index for roots-induction, cutting 7” value is recorded as 0 (The cuttings with less than 4 roots (including no roots)); the “Index for roots-induction, cutting 8” value is 0 (The cuttings with less than 4 roots (including no roots)). Further, the “Index for roots-induction, Total indexes” value was 10.

With `CCCCOC(=O)Cc1c[nH]c2cccc(Cl)c12` [4-Cl-IAA 1-Bu], the “Index for roots-induction, cutting 1” value was 2 (The cuttings with 10-19 roots per a cutting); the “Index for roots-induction, cutting 2” value is reported as 2 (The cuttings with 10-19 roots per a cutting); the “Index for roots-induction, cutting 3” value is 2 (The cuttings with 10-19 roots per a cutting); the “Index for roots-induction, cutting 4” value is 2 (The cuttings with 10-19 roots per a cutting). The “Index for roots-induction, cutting 5” value was 1 (The cuttings with 5-9 roots per a cutting); the “Index for roots-induction, cutting 6” value is given as 1 (The cuttings with 5-9 roots per a cutting); the “Index for roots-induction, cutting 7” value is 0 (The cuttings with less than 4 roots (including no roots)); the “Index for roots-induction, cutting 8” value is listed as 0 (The cuttings with less than 4 roots (including no roots)). In addition, the “Index for roots-induction, Total indexes” value is listed as 10.

`CC(C)OC(=O)Cc1c[nH]c2cccc(Cl)c12` [4-Cl-IAA 2-Pr]: the “Index for roots-induction, cutting 1” value is reported as 2 (The cuttings with 10-19 roots per a cutting); the “Index for roots-induction, cutting 2” value is given as 2 (The cuttings with 10-19 roots per a cutting); the “Index for roots-induction, cutting 3” value is given as 2 (The cuttings with 10-19 roots per a cutting); the “Index for roots-induction, cutting 4” value is 2 (The cuttings with 10-19 roots per a cutting). Moreover, the “Index for roots-induction, cutting 5” value is given as 2 (The cuttings with 10-19 roots per a cutting); the “Index for roots-induction, cutting 6” value is given as 1 (The cuttings with 5-9 roots per a cutting); the “Index for roots-induction, cutting 7” value is reported as 0 (The cuttings with less than 4 roots (including no roots)); the “Index for roots-induction, cutting 8” value is 0 (The cuttings with less than 4 roots (including no roots)). Also, the “Index for roots-induction, Total indexes” value turned out to be 11.

`C=CCOC(=O)Cc1c[nH]c2cccc(Cl)c12` [4-Cl-IAA Ally]: the “Index for roots-induction, cutting 1” value is 3 (The cuttings with 20 or more roots per a cutting); the “Index for roots-induction, cutting 2” value is listed as 3 (The cuttings with 20 or more roots per a cutting); the “Index for roots-induction, cutting 3” value is 2 (The cuttings with 10-19 roots per a cutting); the “Index for roots-induction, cutting 4” value is recorded as 2 (The cuttings with 10-19 roots per a cutting). Besides, the “Index for roots-induction, cutting 5” value is listed as 2 (The cuttings with 10-19 roots per a cutting); the “Index for roots-induction, cutting 6” value was 1 (The cuttings with 5-9 roots per a cutting); the “Index for roots-induction, cutting 7” value is 1 (The cuttings with 5-9 roots per a cutting); the “Index for roots-induction, cutting 8” value was 0 (The cuttings with less than 4 roots (including no roots)). Also, the “Index for roots-induction, Total indexes” value was 14.

For the molecule `CCOC(=O)Cc1c[nH]c2cccc(Cl)c12` [4-Cl-IAA Et], the “Index for roots-induction, cutting 1” value is recorded as 3 (The cuttings with 20 or more roots per a cutting); the “Index for roots-induction, cutting 2” value is listed as 3 (The cuttings with 20 or more roots per a cutting); the “Index for roots-induction, cutting 3” value is 3 (The cuttings with 20 or more roots per a cutting); the “Index for roots-induction, cutting 4” value is recorded as 3 (The cuttings with 20 or more roots per a cutting). Moreover, the “Index for roots-induction, cutting 5” value is listed as 3 (The cuttings with 20 or more roots per a cutting); the “Index for roots-induction, cutting 6” value is listed as 2 (The cuttings with 10-19 roots per a cutting); the “Index for roots-induction, cutting 7” value was 1 (The cuttings with 5-9 roots per a cutting); the “Index for roots-induction, cutting 8” value is 0 (The cuttings with less than 4 roots (including no roots)). For the same molecule, the “Index for roots-induction, Total indexes” value is 18.

For `CCCOC(=O)Cc1c[nH]c2cccc(Cl)c12` [4-Cl-IAA I-Pr], the “Index for roots-induction, cutting 1” value is listed as 3 (The cuttings with 20 or more roots per a cutting); the “Index for roots-induction, cutting 2” value is given as 3 (The cuttings with 20 or more roots per a cutting); the “Index for roots-induction, cutting 3” value was 2 (The cuttings with 10-19 roots per a cutting); the “Index for roots-induction, cutting 4” value was 2 (The cuttings with 10-19 roots per a cutting). In addition, the “Index for roots-induction, cutting 5” value is listed as 2 (The cuttings with 10-19 roots per a cutting); the “Index for roots-induction, cutting 6” value is 2 (The cuttings with 10-19 roots per a cutting); the “Index for roots-induction, cutting 7” value was 1 (The cuttings with 5-9 roots per a cutting); the “Index for roots-induction, cutting 8” value is recorded as 1 (The cuttings with 5-9 roots per a cutting). Further, the “Index for roots-induction, Total indexes” value is 16.

`COC(=O)Cc1c[nH]c2cccc(Cl)c12` [4-Cl-IAA Me]: the “Index for roots-induction, cutting 1” value is listed as 3 (The cuttings with 20 or more roots per a cutting); the “Index for roots-induction, cutting 2” value is reported as 3 (The cuttings with 20 or more roots per a cutting); the “Index for roots-induction, cutting 3” value was 3 (The cuttings with 20 or more roots per a cutting); the “Index for roots-induction, cutting 4” value is given as 2 (The cuttings with 10-19 roots per a cutting). The “Index for roots-induction, cutting 5” value is 2 (The cuttings with 10-19 roots per a cutting); the “Index for roots-induction, cutting 6” value is listed as 2 (The cuttings with 10-19 roots per a cutting); the “Index for roots-induction, cutting 7” value was 0 (The cuttings with less than 4 roots (including no roots)); the “Index for roots-induction, cutting 8” value was 0 (The cuttings with less than 4 roots (including no roots)). The “Index for roots-induction, Total indexes” value was 15.

Turning to `CC(C)COC(=O)Cc1c[nH]c2cccc(Cl)c12` [4-Cl-IAA isoBu], the “Index for roots-induction, cutting 1” value was 2 (The cuttings with 10-19 roots per a cutting); the “Index for roots-induction, cutting 2” value was 2 (The cuttings with 10-19 roots per a cutting); the “Index for roots-induction, cutting 3” value was 2 (The cuttings with 10-19 roots per a cutting); the “Index for roots-induction, cutting 4” value is 1 (The cuttings with 5-9 roots per a cutting). Further, the “Index for roots-induction, cutting 5” value was 1 (The cuttings with 5-9 roots per a cutting); the “Index for roots-induction, cutting 6” value is 0 (The cuttings with less than 4 roots (including no roots)); the “Index for roots-induction, cutting 7” value is 0 (The cuttings with less than 4 roots (including no roots)); the “Index for roots-induction, cutting 8” value was 0 (The cuttings with less than 4 roots (including no roots)). Also, the “Index for roots-induction, Total indexes” value amounted to 8.

On to `CCCCCOC(=O)Cc1c[nH]c2cccc(Cl)c12` [4-Cl-IAA pentyl], for which the “Index for roots-induction, cutting 1” value is 2 (The cuttings with 10-19 roots per a cutting); the “Index for roots-induction, cutting 2” value is 2 (The cuttings with 10-19 roots per a cutting); the “Index for roots-induction, cutting 3” value is recorded as 2 (The cuttings with 10-19 roots per a cutting); the “Index for roots-induction, cutting 4” value is on record as 2 (The cuttings with 10-19 roots per a cutting). The “Index for roots-induction, cutting 5” value is 1 (The cuttings with 5-9 roots per a cutting); the “Index for roots-induction, cutting 6” value is 1 (The cuttings with 5-9 roots per a cutting); the “Index for roots-induction, cutting 7” value is on record as 0 (The cuttings with less than 4 roots (including no roots)); the “Index for roots-induction, cutting 8” value is 0 (The cuttings with less than 4 roots (including no roots)). For the same molecule, the “Index for roots-induction, Total indexes” value amounted to 10.
